Assay results: patent publication US20160299149A1, “ASSAYS AND METHODS FOR CELL PROLIFERATION-TARGETED TREATMENT THERAPIES” (University of Central Florida Research Foundation, Inc., priority 2015, published 2016)
Read-outs that look alike come from different tables or passages of the source. One block for each compound: values may come before it.

Experiments:
[1] = system: MALME-3 cells; test: Cytotoxicity IC50 in matched control cells; format: cell-based; conditions: in the presence of aminoguanidine (1 mM)
[2] = system: CHO cells; test: PTS targeting: cytotoxicity IC50 in PTS-active cells; format: cell-based
Excerpt: (§1) Table 1 compares unmethylated Compound A (containing primary amine termini), and N-methylated Compound A (containing N-methyl termini). […] This is due to the presence of the terminal N-methyl groups in A.

[3] = system: amine oxidases; test: Metabolic stability to amine oxidases; format: in vitro ADME, calf; conditions: unmethylated compound judged without the protective aminoguanidine (AG)
Excerpt: as §1

[4] = system: MALME-3M cells; test: Cytotoxicity IC50 in metastatic melanoma cells; format: cell-based
Excerpt: (§2) Graphical bars extending to the right of the 0 growth percent line indicates growth inhibition by compound A of those specific cell lines.

[5] = system: CHO-MG* cells; test: PTS targeting: cytotoxicity IC50 in PTS-deficient cells; format: cell-based
Excerpt: as §1

[6] = system: L3.6pl pancreatic tumor; test: Human L3.6pl pancreatic tumor in nude mice, combination with 1% DFMO; format: in vivo; conditions: GW5074 1 mg/kg i.p. 5 days per week for 2 weeks, trimer44NMe equimolar (1.8 mg/kg), 1% DFMO in drinking water
Protocol: The extension of these findings is that cells which have high c-myc and ATP13A3 expression will be sensitive to the therapy described herein. These therapies were evaluated in vivo.
The first set of experiments was in nude mice (immune compromised) using human L3.6pl pancreatic cancer cells which have high ATP13A3 and high c-myc expression and high Vmax. […] Note TTI′ in FIGS. 12 and 13 refer to the polyamine-based trimer44NMe PTI compound.
0.5×10^6 L3.6pl tumor cells were injected into the pancreas of nude mice and allowed to grow for 1 week. 1% DFMO was administered in the drinking water (changed weekly) for 2 weeks. […] Mice were collected and pancreatic tissue/tumor, with spleen attached, was weighed.

[7] = system: L3.6pl cells; test: Assay 2 with GW5074 PTI in L3.6pl cells; format: cell-based, human; conditions: 500 cells/well, 48 h at 37° C., 250 μM aminoguanidine
Protocol: (§3) DFMO was dosed to give 50% relative viability versus an untreated control, i.e. DFMO is dosed at its IC50 value. Exogenous spermidine (Spd, 1 μM) is added to the DFMO treated cells and provided significant rescue of these cells to >80% viability depending upon the cell line. A successful PTI was able to block the entry of the spermidine rescuing agent into DFMO treated cells and result in a cell viability near the DFMO control (i.e. 50% viability). The inventors identified the following cell viabilities: DFMO only (50%), Spd only (100%), PTI (>90%), DFMO+Spd (>80%), DFMO+Spd+PTI (50%). The PTI provides a dose dependent lowering of cell viability in the presence of DFMO and a rescuing dose of spermidine. […] Identifying cells that respond to exogenous spermidine allow this assay to be possible and the c-myc and ATP13A3 biomarkers help predict these outcomes as well as the Vmax measurements for ^3H Spd import.

[8] = system: DFMO-treated cells; test: Polyamine transport inhibitor assay 2: PTI blocks uptake of rescuing spermidine into DFMO-treated cells; format: cell-based
Protocol: FIG. 6A is a diagram showing an assay wherein the uptake of rescuing dose of spermidine into DFMO-treated cells is blocked by a PTI (GW 5074).
as §3

[9] = system: PanO2 derived tumors; test: Histology (Ki67, cleaved caspase) of PanO2 derived tumors; format: in vivo; conditions: PanO2 derived tumors in C57Bl/6 mice
Excerpt: FIG. 14 illustrates histological stained images of Ki67, a proliferation marker, and cleaved caspase in the presence of DFMO or DFMO+ the trimer44NMe PTI

[10] = system: melanoma cell lines; test: NCI 60-cancer cell screen; format: cell-based; conditions: for sensitivity of MALME-3M in NCI 60-cancer cell screen: MALME-3M (low Cav-1 and high Cav-2)
Excerpt: as §2

[11] = system: BxPC-3 pancreatic cancer cells; test: Western blot of ATP13A3 and Cav-1 protein levels with DFMO; format: cell-based, human; conditions: 72 h incubation at 37° C.
Protocol: (§4) FIGS. 9A-B provide graphical illustrations of the modulation of ATP13A3 and Cav-1, respectively, by DFMO and DFMO+Spermidine in L3.6pl human pancreatic cancer cells after 72 h incubation at 37° C. In FIG. 9A ATP13A3 protein levels after 72 h incubation at 37° C. are shown in L3.6pl (top) and Bx-PC3 (bottom) pancreatic cancer cells in the presence of DFMO or DFMO+Spd as analyzed by Western blot. Expression was normalized using β-actin levels. […] Note an increase in Cav-1 levels would stabilize caveolae at the cell surface and reduce the uptake of polyamines via a caveolin dependent pathway. A decrease in Cav-1 levels would increase polyamine import.

[12] = system: L3.6pl pancreatic cancer cells; test: as above; format: cell-based, human; conditions: 72 h incubation at 37° C.
Protocol: as §4

[13] = system: L3.6pl cells; test: DFMO 48 h IC50 in L3.6pl cells; format: cell-based, human
Protocol: FIG. 19B provides a graphical illustration of the effect of scrambled siRNA vs. ATP13A3 siRNA on relative L3.6pl cell viability % when challenged with a 48 h IC50 dose of DFMO (8 mM) and a rescuing dose of Spd (1 μM).
FIG. 20B provides a graphical illustration of the effect of scrambled siRNA vs. ATP13A3 siRNA on relative L3.6pl cell viability % when challenged with a 48 h IC50 dose of DFMO (8 mM) and a rescuing dose of Spd (1 μM).

[14] = system: L3.6pl, Panc1, CHO and PanO2 cells; test: Cell line sensitivity to DFMO and spermidine rescue challenge; format: cell-based
[15] = system: MALME-3M cells and MALME-3 control cells; test: Spermidine competition / percent viability with compound A; format: cell-based
Protocol: Aminoguanidine (AG) at 1 mM was determined to be non-toxic and was incubated with cells for 24 h prior to compound addition. Control represents the untreated cells. All experiments were performed in triplicate. Spermidine (Spd, 100 μM) was non-toxic to both cell lines. […] Compound A is a valid polyamine transport probe.

[16] = with aminoguanidine (AG), read-out: CHO IC50 w/ AG
[17] = without aminoguanidine (AG), read-out: CHO IC50 w/o AG
[18] = in the presence of aminoguanidine (1 mM)
[19] = with aminoguanidine (AG), read-out: CHO-MG* IC50 w/ AG
[20] = without aminoguanidine (AG), read-out: CHO-MG* IC50 w/o AG
[21] = MALME-3M, 96 h, read-out: 96 h IC50

Compound: NCCCCNCCCCNCc1ccc(CNCCCCNCCCCN)c2ccccc12 [Compound A w/o Me]
- IC50 [1]: 1.21 µM
- IC50 ratio w/ AG (CHO-MG*/CHO) ([2]; with aminoguanidine (AG)): >4545
- IC50 [2, 16]: 0.022 µM
- IC50 ratio w/o AG (CHO-MG*/CHO) ([2]; without aminoguanidine (AG)): 9.5
- IC50 [2, 17]: 5.5 µM
- metabolic stability to amine oxidases [3]: less selective and less metabolically stable
- IC50 ratio (MALME-3/MALME-3M) [4, 18]: 71
- IC50 ([4]; in the presence of aminoguanidine (1 mM), read-out: MALME-3M IC50): 0.018 µM
- IC50 [5, 19]: > 100 µM
- IC50 [5, 20]: 52.1 µM

Compound: O=C1Nc2ccc(I)cc2/C1=C/c1cc(Br)c(O)c(Br)c1 [GW5074]
- reduction in tumor size [6]: statistically significant reduction
- effectiveness against L3.6pl cells ([7]; in combination with DFMO): effective

- metabolic stability to amine oxidases [3]: enhanced stability
Compound: CNCCCCNCCCCNCc1cc(CNCCCCNCCCCNC)cc(CNCCCCNCCCCNC)c1 [Compound 6b]
- effectiveness as PTI agent in vitro ([8]; in vitro): effective
- proliferation (Ki67 histological stain) [9]: reduced proliferation
- cleaved caspase staining (apoptosis) ([9]; PTI by itself): apoptosis is occurring

Compound: CNCCCCNCCCCNCc1c2ccccc2c(CNCCCCNCCCCNC)c2ccccc12 [Compound B]
- IC50 [4, 21]: 0.062 µM
- sensitivity of MALME-3M in NCI 60-cancer cell screen ([10]; 10 μM): most sensitive cell line

- IC50 [13]: 8000 µM
Compound: difluoromethylornithine [DFMO]
- cell viability ([8]; DFMO dosed at its IC50, Spd 1 μM, PTI not above its IC10, relative to untreated control): 50%
- relative ATP13A3 expression (normalized using β-actin) ([11]; Bx-PC3, 48 h IC50 DFMO dose (e.g., 8 mM)): significant increase
- levels of Cav-1 ([11]; BxPC-3, in the presence of DFMO): not dramatically changed
- relative ATP13A3 expression (normalized using β-actin) ([12]; 48 h IC50 DFMO dose (e.g., 8 mM)): significant increase
- levels of Cav-1 ([12]; in the presence of DFMO): not dramatically changed
- IC50 [14]: < 5000 µM
- effectiveness against L3.6pl cells ([7]; DFMO alone): effective
- proliferation (Ki67 histological stain) [9]: reduced proliferation

Compound: N=C(N)NN [Aminoguanidine, aminoguanidine]
- toxicity to cells ([15]; 1 mM, incubated with cells for 24 h prior to compound addition): non-toxic

- metabolic stability to amine oxidases [3]: metabolically stable
Compound: CNCCCCNCCCCNCc1ccc(CNCCCCNCCCCNC)c2ccccc12 [Compound A]
- IC50 [1]: 0.82 µM
- CHO-MG*/CHO IC50 ratio (selectivity for CHO cells with active PTS) ([2]; summary bound, also when AG is removed): > 2200
- IC50 ratio w/ AG (CHO-MG*/CHO) ([2]; with aminoguanidine (AG)): >2272
- IC50 [2, 16]: 0.044 µM
- IC50 ratio w/o AG (CHO-MG*/CHO) ([2]; without aminoguanidine (AG)): >2564
- IC50 [2, 17]: 0.039 µM
- IC50 [4, 21]: 0.014 µM
- IC50 ratio (MALME-3/MALME-3M) [4, 18]: 59
- sensitivity of MALME-3M in NCI 60-cancer cell screen ([10]; 10 μM): most sensitive cell line
- growth of cancer cell lines in NCI 60-cancer cell screen ([10]; 10 μM, MALME-3M, M14, MDA-MB-435, SK-MEL2, SK-MEL-28, SK-MEL-5, UACC-257, UACC-62): decreased growth of cancer cell lines
- sensitivity of LOX IMVI melanoma cell line ([10]; LOX IMVI (high Cav-1, low Cav-2)): most resistant melanoma cell line
- competition with spermidine for cell entry (percent viability) ([15]; 96 h at 37 degrees Celsius, 0.02 μM (MALME-3M cells), 0.8 μM (MALME-3 control cells)): competes with Spd for cell entry
- IC50 [5, 19]: > 100 µM
- IC50 [5, 20]: > 100 µM
